Results as given in ChEMBL document CHEMBL1201862, “PubChem BioAssay data set” (2004).
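Cultured in 96-well plates, cells were exposed to test compound for 48 hours across five concentrations. Here, GI50 denotes the concentration required for 50% inhibition of growth.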 Calls of active or inactive are those of the source. Rule as the data show it: active = GI50 up to about 1.1 µM and inactive = higher.

Legend:
Assay in all cases: NCI tumour cell line growth inhibition, 48 h
[1] = test system: NCI/ADR-RES
[2] = test system: PC-3
[3] = test system: UACC-257
[4] = test system: SK-MEL-2
[5] = test system: SF-268
[6] = test system: NCI-H226
[7] = test system: SK-MEL-28
[8] = test system: BT-549
[9] = test system: SF-295
[10] = test system: KM12
[11] = test system: DU-145
[12] = test system: RPMI-8226
[13] = test system: MOLT-4
[14] = test system: T47D
[15] = test system: SNB-75
[16] = test system: RXF 393
[17] = test system: HCT-15
[18] = test system: OVCAR-3
[19] = test system: SR

SMILES | GI50 [1] | GI50 [2] | GI50 [3] | GI50 [4] | GI50 [5] | GI50 [6] | GI50 [7] | GI50 [8] | GI50 [9] | GI50 [10] | GI50 [11] | GI50 [12] | GI50 [13] | GI50 [14] | GI50 [15] | GI50 [16] | GI50 [17] | GI50 [18] | GI50 [19]
C/C(CC/C(C)=N/O)=N\O | > 100 µM (inactive) | > 100 µM (inactive) | > 100 µM (inactive) | > 100 µM (inactive) | > 100 µM (inactive) | > 100 µM (inactive) | > 100 µM (inactive) | > 100 µM (inactive) | > 100 µM (inactive) | > 100 µM (inactive) | > 100 µM (inactive) | > 100 µM (inactive) | > 100 µM (inactive) | > 100 µM (inactive) | > 100 µM (inactive) | > 100 µM (inactive) | > 100 µM | > 100 µM (inactive) | –
O=C1c2ccccc2C(=O)N1CC1(C(=O)O)NCCS1(=O)=O (stereo not drawn) | > 100 µM (inactive) | > 100 µM (inactive) | > 100 µM (inactive) | > 100 µM (inactive) | > 100 µM (inactive) | > 100 µM (inactive) | > 100 µM (inactive) | > 100 µM (inactive) | > 100 µM (inactive) | > 100 µM (inactive) | – | > 100 µM (inactive) | > 100 µM (inactive) | > 100 µM (inactive) | – | > 100 µM (inactive) | > 100 µM | > 100 µM (inactive) | > 100 µM (inactive)
CC1CC(=O)Nc2cc(Cl)ccc2N1C(=O)C1CC1 (stereo not drawn) | – | > 100 µM (inactive) | > 100 µM (inactive) | > 100 µM (inactive) | > 100 µM (inactive) | > 100 µM (inactive) | > 100 µM (inactive) | > 100 µM (inactive) | > 100 µM (inactive) | > 100 µM (inactive) | > 100 µM (inactive) | > 100 µM (inactive) | > 100 µM (inactive) | > 100 µM (inactive) | – | > 100 µM (inactive) | > 100 µM | > 100 µM (inactive) | –
O=C(Nc1ccc2[nH]c(C(=O)N3CC(CCl)c4ccc([N+](=O)[O-])cc43)cc2c1)c1cc2ccccc2o1 (stereo not drawn) | > 1100 µM (inactive) | – | > 1100 µM (inactive) | > 1100 µM (inactive) | > 1100 µM (inactive) | > 1100 µM (inactive) | > 1100 µM (inactive) | > 1100 µM (inactive) | 716 µM (inactive) | > 1100 µM (inactive) | > 1100 µM (inactive) | > 1100 µM (inactive) | > 1100 µM (inactive) | > 1100 µM (inactive) | – | > 1100 µM (inactive) | > 1100 µM | > 1100 µM (inactive) | –
CCOC(=O)C(NC(=O)NCc1ccc(F)cc1)C(F)(F)F (stereo not drawn) | > 100 µM (inactive) | > 100 µM (inactive) | > 100 µM (inactive) | > 100 µM (inactive) | > 100 µM (inactive) | – | > 100 µM (inactive) | > 100 µM (inactive) | – | – | – | > 100 µM (inactive) | > 10 µM (inactive) | > 100 µM (inactive) | > 100 µM (inactive) | > 100 µM (inactive) | > 100 µM | – | > 100 µM (inactive)
O=S(=O)([N-]c1nc2ccccc2nc1-[n+]1ccccc1)c1ccccc1 | > 100 µM (inactive) | > 100 µM (inactive) | > 100 µM (inactive) | > 100 µM (inactive) | > 100 µM (inactive) | > 100 µM (inactive) | – | 20.8 µM (inactive) | > 100 µM (inactive) | > 100 µM (inactive) | – | 74 µM (inactive) | 23.1 µM (inactive) | 81.8 µM (inactive) | > 100 µM (inactive) | > 100 µM (inactive) | > 100 µM | > 100 µM (inactive) | 14.9 µM (inactive)
